Results from patent US6767741B1, “Metal binding compounds and their use in cell culture medium compositions” (Invitrogen Corporation, priority 1999, dated 2004).

Experiments:
Type in all cases: cell-based
293 cells = assay: Growth of 293 cells in transferrin-free 293 SFM with metal binding compounds; conditions: third passage
Description: Semi-confluent adherent cultures of 293 Cells (ATCC, CRL 1573) are readily adapted to suspension culture. The cells are first detached with a solution of Trypsin-EDTA (0.05% Trypsin, 0.53 mM Na4EDTA), and then resuspended in conventional medium supplemented with 10% FBS to inhibit the trypsin. The resuspended cells are centrifuged at 200×g for five minutes. The cell pellet is resuspended in 293 SFM (available from Life Technologies, Rockville, Md.) the formulation of which is described in WO 98/08934 which is specifically incorporated herein by reference. Alternatively, the cells may be detached with Versene (Na4EDTA, 0.53 mM) and resuspended in 293 SFM.
The initial seeding density of the 293 cells after conversion to suspension culture is 1×10^6 cells/mL. The cells are shaken on a rotary shaker at 150 rpm in a 37° C. incubator equilibrated with 8% CO2-92% air. When the cells reach a density of 1.5×10^6 cells/mL they are diluted with 293 SFM to a density of 3.0×10^5 cells/mL. Because 293 cells have a tendency to aggregate, the cells may be vortexed vigorously for approximately 45 seconds to obtain a predominantly single cell suspension at the time of passaging and counting. After several passages in suspension culture, the maximum achievable density may be determined.
The ability of metal binding compounds to support cellular growth was evaluated using 293 cells maintained in 293 SFM (Life Technologies, Rockville, Md.) without transferrin or metal binding compound. Stock cultures containing 5 μg/mL human holo-transferrin were prepared in 293 SFM. For metal binding compound evaluation, 293 cells were established in 125 mL shaker flasks at an initial viable seeding density of 2×10^5 cells/mL in a final volume of 20 mL. All cultures were maintained at 37° C. in humidified air containing 8% CO2. To eliminate transferrin carry-over effects, cells were subcultured at 4 day intervals for a total of three passages. At each subculturing, cells were seeded at a density of 2×10^5 cells/mL. Positive control cultures contained 5 μg/mL human holo-transferrin while negative control cultures were established in the absence of either transferrin or metal binding compound. Metal binding compound stocks were prepared at 0.1M-0.2M in ddH2O and solubilized when necessary using 5N NaOH or HCl. Iron complexes were established using 0.2M metal binding compound and iron stocks mixed 1:1 (v/v) and incubated for 5-10 minutes at 22° C. All solutions containing metal binding compounds were filter sterilized using a 0.22 μm Millex-GV filter prior to addition to transferrin and serum-free media.
In most cases, metal binding compounds were evaluated either alone or in combination with ferric chloride or ferrous sulfate at 25 μM, 50 μM and 100 μM. When used in combination, the metal binding compounds were used in equimolar concentration with iron ions. Values in the table represent the mean percentage of control growth for duplicate cultures determined at the third passage.
(§1) When added to the medium formulation un-complexed, the metal binding compound is listed alone, when added as a complex with a transition metal, the source of the transition metal is listed with the metal binding compound.

Sp2/0 cells = assay: Growth of Sp2/0 cells in transferrin-free CD Hybridoma medium with metal binding compounds; conditions: third passage
Description: The ability of iron metal binding compounds to support cellular growth in the absence of transferrin was evaluated using Sp2/0 cells maintained in CD Hybridoma medium (Life Technologies, Rockville, Md.). Stock cultures containing 5 μg/mL human holo-transferrin were prepared in CD Hybridoma medium. For metal binding compound evaluation, Sp2/0 cells were established at an initial viable cell density of 0.5×10^5 cells/mL in stationary culture using 75 cm^2 tissue culture flasks in a final volume of 20 mL. All cultures were maintained at 37° C. in humidified air containing 8% CO2. To eliminate transferrin carry-over effects, cells were subcultured at the same seeding density at 4 day intervals for a total of three passages. Positive control cultures contained 5 μg/mL human holotransferrin while negative control cultures were established in the absence of either transferrin or metal binding compound. Metal binding compound stocks were prepared at 0.1M-0.2M in ddH2O and solubilized when necessary using 5N NaOH or HCl. Iron complexes were established using 0.2M metal binding compound and iron stocks mixed 1:1 (v/v) and incubated for 5-10 minutes at 22° C. All solutions containing metal binding compounds were filter sterilized using a 0.22 μm Millex-GV filter prior to addition to transferrin and serum-free media.
(§2) In most cases, metal binding compounds were evaluated either alone or in combination with ferric chloride or ferrous sulfate at 25 μM, 50 μM and 100 μM. Values in the table represent the mean percentage of control growth for duplicate cultures determined at the third passage.
as §1

CHO cells = assay: Growth of CHO cells in transferrin-free CD CHO medium with metal binding compounds; conditions: third passage
Description: The ability of metal binding compounds to support cellular growth in the absence of transferrin was evaluated using CHO cells maintained in CD CHO medium (Life Technologies, Rockville, Md., the formulation of which is described in WO 98/08934). Stock cultures containing 5 μg/mL human holo-transferrin were prepared in CD CHO medium. For metal binding compound evaluation, CHO cells were established in 125 mL shaker flasks at an initial viable seeding density of 1×10^5 cells/mL in a final volume of 20 mL. All cultures were maintained at 37° C. in humidified air containing 8% CO2. To eliminate transferrin carry-over effects, cells were subcultured at 4 day intervals for a total of three passages. Positive control cultures contained 5 μg/mL human holo-transferrin while negative control cultures were established in the absence of either transferrin or metal binding compound. Metal binding compound stocks were prepared at 0.1M-0.2M in ddH2O and solubilized when necessary using 5N NaOH or HCl. Iron complexes were established using 0.2M metal binding compound and iron stocks mixed 1:1 (v/v) and incubated for 5-10 minutes at 22° C. All solutions containing metal binding compounds were filter sterilized using a 0.22 μm Millex-GV filter prior to addition to transferrin and serum-free media.
as §2
as §1, with “The ability of various metal binding compounds to substitute for transferrin in the culture of CHO cells was determined. When” for “When”

mammalian cells = assay: Replacement of transferrin as iron carrier in culture media (general statements); conditions: statement in words
Source text: By “compatible ingredients” is also meant those media nutrients which can be maintained together in solution and form a “stable” combination. […] Ingredients are also considered “stable” if degradation cannot be detected or when degradation occurs at a slower rate when compared to decomposition of the same ingredient in a 1×cell culture media formulation. For example, in 1×media formulations glutamine is known to degrade into pyrolidone carboxylic acid and ammonia. Glutamine in combination with divalent cations are considered “compatible ingredients” since little or no decomposition of the glutamine can be detected over time in solutions or combinations in which both glutamine and divalent cations are present. See U.S. Pat. No. 5,474,931.
The metal-binding compounds used in accordance with the present invention may be obtained commercially (e.g., from Sigma,St. Louis, Mo. and other well-known commercial sources), or may be prepared synthetically according to the guidance provided by the technical and patent publications referenced herein, the disclosures of which are incorporated herein by reference in their entireties.

[1] = 25 μM, control = 5 μg/mL human holo-transferrin, duplicate cultures
[2] = 50 μM, control = 5 μg/mL human holo-transferrin, duplicate cultures
[3] = 100 μM, control = 5 μg/mL human holo-transferrin, duplicate cultures
[4] = 5 μM, control = holo-transferrin
[5] = 10 μM, control = holo-transferrin
[6] = 20 μM, control = holo-transferrin

Structure (SMILES) | mean percentage of control growth (293 cells; [1]) | mean percentage of control growth (293 cells; [2]) | mean percentage of control growth (293 cells; [3]) | mean percentage of control growth (Sp2/0 cells; [1]) | mean percentage of control growth (Sp2/0 cells; [2]) | mean percentage of control growth (Sp2/0 cells; [3]) | mean percentage of control growth (CHO cells; [1]) | mean percentage of control growth (CHO cells; [2]) | mean percentage of control growth (CHO cells; [3]) | ability to replace transferrin as iron carrier in culture media (mammalian cells) | further results
O=C(O)CN(CC(=O)O)CC(=O)O.[Cl][Fe]([Cl])[Cl] [Nitriloacetic Acid · Ferric Chloride] | 100% | 118% | 74% | 88% | 87% | 70% | 127% | 107% | 107% |  | 
NC(=O)CCC(N)C(=O)O.[Cl][Fe]([Cl])[Cl] (centres unmarked) [Glutamine · Ferric Chloride] |  |  |  | 36% | 55% | 65% |  |  |  | can be substituted for transferrin | 
CC(=O)N(O)CCCCCNC(=O)CCC(=O)N(O)CCCCCNC(=O)CCC(=O)N(O)CCCCCN.CS(=O)(=O)O.[Cl][Fe]([Cl])[Cl] [Deferoxamine Mesylate · Ferric Chloride] |  |  |  |  |  |  |  |  |  |  | mean percentage of control growth (293 cells; [4]): 101%; mean percentage of control growth (293 cells; [5]): 120%; mean percentage of control growth (293 cells; [6]): 127%; mean percentage of control growth (Sp2/0 cells; [4]): 0%; mean percentage of control growth (Sp2/0 cells; [5]): 0%; mean percentage of control growth (Sp2/0 cells; [6]): 0%; mean percentage of control growth (CHO cells; [4]): 50%; mean percentage of control growth (CHO cells; [5]): 74%; mean percentage of control growth (CHO cells; [6]): 52%
OC[C@@H](O)[C@@H](O)[C@H](O)[C@@H](O)CO [sorbitol] |  |  |  |  |  |  |  |  |  | used successfully to replace transferrin | 
NC(CO)C(=O)NO.[Cl][Fe]([Cl])[Cl] (centres unmarked) [Serine Hydroxamate · Ferric Chloride] | 68% | 65% | 51% | 46% | 66% | 62% | 106% | 121% | 124% |  | 
